# Data as given in patent US12161656B2 (MELINTA SUBSIDIARY CORP., priority 2010, dated 2024).
# Where two headings read alike, the source gives them in different places.
# What was measured:
# [1] = test system: rabbit red blood cells (RBCs); assay: In vitro hemolysis of rabbit red blood cells (in vitro model of venous phlebitis), Example 8; settings: Table 29, rabbit RBCs, 2.5 mg/ml minocycline solution, different molar ratios cation:minocycline
# [2] = test system: Human umbilical vein endothelial cells (HUVEC); assay: Uptake of minocycline in HUVEC at various Mg/minocycline ratios (LCMS), Example 12; format: cell-based; settings: 1 mg/mL in saline, 30 min, Mg/minocycline ratios 0-25, FIGS. 6 and 7
# Experimental: Cells and reagents: Human umbilical vein endothelial cells (HUVEC) were purchased from Lonza and maintained according to manufacturer's recommendations in EGM-2 media. A 10 mg/mL solution of minocycline was prepared in 13.6 mg/mL Na-acetate without addition of Mg. This stock solution was further diluted in saline to 1 mg/mL with addition of Mg in the form of 1 M MgSO4 to generate the following molar ratios of Mg to minocycline: 0, 1, 2.5, 5, 10, 25.
# Uptake experimental conditions: HUVECs were seeded at 4.5×10^5 cells/well density in 6-well plates in EGM-2 media. Two days after seeding, cells were washed once with 2 mL of saline, and then 2 mL of 1 mg/mL drug solution in saline prepared as described above was placed in each well in triplicate. Plates were incubated in a CO2 incubator at 37° C. for 30 min. Drug solutions were aspirated and cells were washed once with 2 mL of saline. 0.5 mL of saline was placed in each well and the cell monolayer was scraped using a plastic cell scraper. Cell suspensions were transferred to 1.5 mL plastic tubes and sonicated for 30 sec at maximal power. Cell lysates were spun down for 10 min on a table top microcentrifuge at maximum speed and supernatants were collected. […]
# [3] = From the text: The solubility of four non-dimethlyamino tetracyclines, with and without Mg^2+, was examined.
# [4] = test system: rabbit red blood cells (RBCs)
molecule,measurement,setting,value
Triton-x,Hemolysis of RBCs in solution relative to water,[1],97.82%
CN(C)c1ccc(O)c2c1C[C@H]1C[C@H]3[C@H](N(C)C)C(O)=C(C(N)=O)C(=O)[C@@]3(O)C(O)=C1C2=O [Minocycline],intracellular uptake of minocycline,[2],"decrease in intracellular uptake of minocycline is observed as the concentration of a divalent cation, such as Mg^2+ increases"
CN(C)[C@@H]1C(O)=C(C(N)=O)C(=O)[C@@]2(O)C(O)=C3C(=O)c4c(O)cccc4[C@@](C)(O)[C@H]3[C@H](O)[C@@H]12 [oxytetracycline],solubility (text summary of Table 36),[3],"remains insoluble in the presence of divalent cations, such as Mg^2+, at low pH"
C[C@H]1c2cccc(O)c2C(=O)C2=C(O)[C@]3(O)C(=O)C(C(N)=O)=C(O)[C@@H](N(C)C)[C@@H]3[C@@H](O)[C@@H]21 [Doxycycline],solubility (text summary of Table 36),[3],"is soluble in the absence of divalent cations, such as Mg^2+, but is insoluble in the presence of divalent cations at low pH"
"C[C@@H]1[C@H](O)[C@@H](C)/C=C/C=C/C=C/C=C/C=C/C=C/C=C/[C@H](O[C@@H]2O[C@H](C)[C@@H](O)[C@H](N)[C@@H]2O)C[C@@H]2O[C@](O)(C[C@@H](O)C[C@@H](O)[C@H](O)CC[C@@H](O)C[C@@H](O)CC(=O)O[C@H]1C)C[C@H](O)[C@H]2C(=O)O [Amphoterin B, Amphotericin B]",Hemolysis of RBCs in solution relative to water,[4],101.31%
same,Hemolysis of RBCs in solution relative to water,[4]; pH 5.85,101.31%
